# Results taken from patent US8466202B2, “Anthracenedione compounds” (Sunten Phytotech Co., Ltd., priority 2006, dated 2013).
# “And” between values parts separate entries of the source, which are not always exact repeats. Equal values may be shown once.
# Legend:
# [1] = Enteric absorption rate (statement, no method given); settings: general statement
# [2] = Body weight of rats over the 10-day period (Example 3); assay type: in vivo, rat; set-up: Body weight Difference: unit not given here; settings: Group III, Physcion 4 mg/kg, CP 8 mg/kg
# Procedure: The aforementioned STD05 and compounds were studied for the laxative activity. Healthy male S.D. rats (BioLASCO Taiwan Co. Ltd.) were divided into three groups (i.e., Groups 1-3) in this study. In Group I, 6 rats, as negative control, were given no treatment; 6 rats, as positive control, were given 3.35 mg/kg/day Sennosides (Through®, Chung Mei Pharmaceutical Co., Ltd; Active ingredient: Sennosides 20 mg, as sennoside A+B 12 mg, Lot. 012F 006); 6 rats were treated STD05 (8 mg/kg/day); 6 rats were treated with an extract fraction containing aloe-emodin, rhein, and emodin (“ARE”, 8 mg/kg/day); 6 rats were treated with Aloe-emodin (4 mg/kg/day); and 6 rats were treated with Rhein (4 mg/kg/day). In Group II, 6 rats, as negative control, were given no treatment; 6 rats, as positive control, were given 3.35 mg/kg/day Sennosides; 6 rats were treated STD05 (24 mg/kg/day); 6 rats were treated with an extract fraction containing ARE (24 mg/kg/day); 6 rats were treated with Chrysophanol (4 mg/kg/day); and 6 rats were treated with Emodin (4 mg/kg/day). In Group III, 6 rats, as negative control, were given no treatment; 6 rats were treated with Physcoin (4 mg/kg/day); and 6 rats were treated with a mixture of chrysophanol and physcion (8 mg/kg/day, “CP”). The experiments were carried out under controlled temperature, humidity, and lighting. Each rat was fed standard rat food and water ad libitum in housing that provided a 12-hour light/dark cycle. For statistical comparison, all of the rats were divided into six sets according to the body weights. The first part of the experiment studied the effect of the test substances on feces production. During the 10-day period, the body weights of the rats were weighed each day and recorded. The rat's feces was also studied three times in the manner described above during the 10-day period for any unusual observations. During the 10-day period, any rat that appeared dying was euthanized, dissected, and examined for any illness or injury. Any complications or illness were analyzed by H&E stains to determine the cause of death and to allow for dosage reconsiderations for future experiments. Summarized in Table 4 below are the effects of the compounds, mixtures, or extracts on the rat body weights.
# [3] = Side effects compared with Rheum palmatum Linne herb extracts (statement, no method given); settings: general statement
# healthy male S.D. rats = assay: Feces production in rats over the 10-day period (Example 3); assay type: in vivo, rat; settings: for increase of the feces amount (wet weight): vs control of the same group; for Pellet count / Water content / Wet Weight: Group III, Physcion 4 mg/kg, CP 8 mg/kg
# Procedure: During this period, the body weights of the rats were weighed each day and recorded. Feces of each rat were studied three times during the period for any unusual observations. Specifically, the amounts of feces were weighed on Days 11, 15, 18, and 21. During observation, each rat was placed in a metabolic cage. Feces were collected every twenty-four hours. The number of collected feces pellets was counted, and the pellets' shapes and colors were evaluated. After weighing the moist feces, they were dried in an oven at 100° C. for twenty-four hours. The water content from the feces was calculated according to the following formula: Water content percentage=[(wet weight−dry weight)/wet weight]×100%. (I) The results are summarized in Table 2 below: The aforementioned STD05 and compounds were studied for the laxative activity. Healthy male S.D. rats (BioLASCO Taiwan Co. Ltd.) were divided into three groups (i.e., Groups 1-3) in this study. In Group I, 6 rats, as negative control, were given no treatment; 6 rats, as positive control, were given 3.35 mg/kg/day Sennosides (Through®, Chung Mei Pharmaceutical Co., Ltd; Active ingredient: Sennosides 20 mg, as sennoside A+B 12 mg, Lot. 012F 006); 6 rats were treated STD05 (8 mg/kg/day); 6 rats were treated with an extract fraction containing aloe-emodin, rhein, and emodin (“ARE”, 8 mg/kg/day); 6 rats were treated with Aloe-emodin (4 mg/kg/day); and 6 rats were treated with Rhein (4 mg/kg/day). In Group II, 6 rats, as negative control, were given no treatment; 6 rats, as positive control, were given 3.35 mg/kg/day Sennosides; 6 rats were treated STD05 (24 mg/kg/day); 6 rats were treated with an extract fraction containing ARE (24 mg/kg/day); 6 rats were treated with Chrysophanol (4 mg/kg/day); and 6 rats were treated with Emodin (4 mg/kg/day). In Group III, 6 rats, as negative control, were given no treatment; 6 rats were treated with Physcoin (4 mg/kg/day); and 6 rats were treated with a mixture of chrysophanol and physcion (8 mg/kg/day, “CP”). The experiments were carried out under controlled temperature, humidity, and lighting. Each rat was fed standard rat food and water ad libitum in housing that provided a 12-hour light/dark cycle. For statistical comparison, all of the rats were divided into six sets according to the body weights. The first part of the experiment studied the effect of the test substances on feces production. During the 10-day period, the body weights of the rats were weighed each day and recorded. The rat's feces was also studied three times in the manner described above during the 10-day period for any unusual observations. During the 10-day period, any rat that appeared dying was euthanized, dissected, and examined for any illness or injury. Any complications or illness were analyzed by H&E stains to determine the cause of death and to allow for dosage reconsiderations for future experiments. Summarized in Table 4 below are the effects of the compounds, mixtures, or extracts on the rat body weights. During the period, feces produced by the rats were studied days 1, 5, and 10 in the same manner described above. […] In the 10-day period, the rats administered with STD05 produced more feces (wet weight) that the rats in the control group by about 32%. In addition, the pellet counts for the rats administered with STD05 were greater than those for the control rats by about 20%. Furthermore, STD05 increased the water content in feces by about 18%. The same experiments were conducted on rats administered with physcion, aloe-emodin, chrysophanol, rhein, emodin, CP, and ARE.
compound,measurement,setting,value
"COc1cc(O)c2c(c1)C(=O)c1cc(C)cc(O)c1C2=O [Physcion, physcion]",enteric absorption rate,[1],very low
same,"Body weight Difference, Mean","[2]; group mean, Day 10 minus Day 1",30 g
same,"Body weight End Day 10, Mean",[2]; group mean,425 g
same,Body weight Difference,"[2]; individual rats, Day 10 minus Day 1",25 and 30 (3×) and 45 and 20
same,Body weight End Day 10,"[2]; individual rats, in g (unit assumed)",410 and 430 and 450 and 385 and 415 and 460
same,"side effects often seen in herb extracts (cramping, bloating, gas, and diarrhea)",[3],do not have the side effects
same,increase of the feces amount (wet weight),healthy male S.D. rats; Day 1,93%
same,increase of the feces amount (wet weight),healthy male S.D. rats; Day 5,57%
same,increase of the feces amount (wet weight),healthy male S.D. rats; Day 10,32%
same,Pellet count,healthy male S.D. rats; Day 1,134
same,Water content,healthy male S.D. rats; Day 1,55.73%
same,Wet Weight,healthy male S.D. rats; Day 1,35.38 g
same,Pellet count,healthy male S.D. rats; Day 5,128
same,Water content,healthy male S.D. rats; Day 5,53.80%
same,Wet Weight,healthy male S.D. rats; Day 5,35.17 g
same,Pellet count,healthy male S.D. rats; Day 10,121
same,Water content,healthy male S.D. rats; Day 10,47.66%
same,Wet Weight,healthy male S.D. rats; Day 10,29.43 g
same,"increase of the feces amount (wet weight), average","healthy male S.D. rats; average of Days 1, 5 and 10",61%
